From US8114406B2, “Peptides and their utility in modulation of behavior of cells expressing α3β1 integrins” (The United States of America as represented by the …, priority 1999, dated 2012)
Where two headings read alike, the source gives them in different places. Blank lines part the entries; values can stand above or below the molecule they belong to. Where a SMILES comes first, the peptide text is derived from it. Where no end group is shown, it is not given here.

Legend:
[1] = tested on: MDA-MB-435 breast carcinoma cells; experiment: Inhibition of MDA-MB-435 cell adhesion to immobilized peptide 678 (microscopic adhesion assay); assay type: cell-based, human
Experimental: (§1) Adhesion assays of cells other than small cell lung carcinoma (SCLC)-Adhesion was measured on polystyrene or glass substrates coated with peptides or proteins as previously described (Guo et al., 1992). Peptides dissolved in PBS at 0.4 to 50 μM were incubated in polystyrene microliter plate wells overnight at 4° C. The wells were washed 3 times with distilled water. Adsorbed peptide was quantified using the BCA assay (Pierce Chemical) measuring absorbance at 570 and 630 nm as described by the supplier's protocol. The assay for adsorption was calibrated using purified peptide in solution as a standard. After blocking with 1% BSA in Dulbecco's PBS, adhesion assays were performed by adding cells suspended in DMEM (BAE cells) or medium 199 (human cells) containing 1 mg/ml BSA. Cell attachment and spreading was quantified microscopically.

HUVEC = HUVEC spreading on coated substrates; assay type: cell-based, human
Experimental: FIGS. 14A, 14B and 14C display α3β1 and αvβ3 integrin-mediated spreading of endothelial cells on thrombospondin-1. […] Results are expressed as percent of the response for untreated cells, mean±S.D., n=3.
as §1

[2] = tested on: MDA-MB-435 breast carcinoma cells
Experimental: MDA-MB-435 cell adhesion to microliter plate wells coated with 5 uM peptide 678 was determined in the presence of the indicated concentrations of soluble carboxamidomethyl-peptide 716 or peptide 716 covalently linked to FICOLL™ as previously described (Guo et al., 1997). After washing twice to remove unattached cells, adherent cells were quantified by detection of cellular hexosaminidase using p-nitrophenyl-N-acetylglucosaminide as substrate. Released p-nitrophenol was detected by absorbance at 405 nm. Results are mean+/−SD, n=3.
In this case, the adherent cells are quantified by detection of cellular hexosaminidase using p-nitrophenyl-N-acetylglucosaminidine as substrate. Released p-nitrophenol is detected by absorbance at 405 nm.

[3] = tested on: MDA-MB-435 breast carcinoma cells; experiment: Direct adhesion of MDA-MB-435 cells to peptides adsorbed on polystyrene; assay type: cell-based, human; conditions: peptides adsorbed at 10 μM (FIG. 2)
Experimental: as §1

[4] = tested on: chick chorioallantoic membrane (CAM) angiogenesis; experiment: Chick chorioallantoic membrane (CAM) angiogenesis assay; assay type: in vivo, chicken; conditions: relative to control gels, mean ± SD
Experimental: Fertilized Leghorn chicken eggs were obtained from Ramona Duck farm (Westminster, Calif.). At day 3 of development, the embryos were placed on 100 mm petri dishes. Assays were performed as previously described (Iruela-Arispe et al., 1999). […] Peptides were filtered on Centricon P100 prior to their analysis on the CAM assays to eliminate traces of endotoxin. Pellets were applied to the outer ⅓ of the CAM, and the assay was performed for 24 h. Detection of capillary growth was done by injection of FITC-dextran in the bloodstream and observation of the pellets under a fluorescent inverted microscope. Positive controls (growth factors and vehicle), as well as negative controls (vehicle alone) were placed in the same CAM and used as reference of 100% stimulation or baseline inhibition (0%), and response to the peptides was determined according to these internal controls. Assays were performed in duplicate in each CAM and in four independent CAMs (total of 8 pellets).

N417 SCLC cells = experiment: SCLC cell adhesion to extracellular matrix proteins, N417; assay type: cell-based, human
Experimental: (§2) For adhesion assays of SCLC, these cells were washed once with RPMI 1640 and centrifuged at 400×g for 3 min. The pellet was suspended in 2.5 mM EDTA in PBS, pH 7.4 and incubated for 10 min at 37° C. After trituration three times and centrifugation, the cells were resuspended in RPMI 1640 containing 0.1% BSA (Sigma Co. St Louis, Mo.).
(§3) Adhesion of SCLC cells to extracellular matrix proteins. Extracellular matrix proteins or peptides in Dulbecco's PBS were adsorbed onto polystyrene by incubating overnight at 4° C. […] The supernatant fluid was removed, and the dishes were incubated with Tris-gelatin (ICN) (50 mM Tris-HCl, 110 mM NaCl, 5 mM CaCl2, 0.1 mM phenylmethylsulfonyl fluoride, 0.2% gelatin and 0.02% NaN3, pH 7.8) or Dulbeccos PBS with 1% BSA, as indicated, for 30 min to minimize nonspecific adhesion. The disks were washed twice with cold PBS, pH 7.2 and overlayed with dissociated SCLC cells prepared as described above at a density of 2.5×10^5/cm^2.
(§4) For inhibition studies with SCLC cells, inhibitors or antibodies were added and incubated with SCLC cells at the indicated concentrations. After incubation for 60-90 min at 37° C., the disks were washed by dipping six times in PBS, pH 7.2, fixed with 1% glutaraldehyde in PBS, pH 7.2, and stained with Diff-Quik. Attached cells were counted microscopically.

H345 SCLC cells = experiment: SCLC cell adhesion to extracellular matrix proteins, H345; assay type: cell-based, human
Experimental: as §2, §3, §4

H69 SCLC cells = experiment: SCLC cell adhesion to extracellular matrix proteins, H69; assay type: cell-based, human
Experimental: as §2, §3, §4

[5] = Table 3, 5 μM peptide 678, read-out: IC50 (μM), inhibition of MDA-MB-435 cell adhesion to immobilized peptide 678
[6] = microscopic adhesion assay, polystyrene coated with 5 μM peptide 678, peptides in solution, read-out: Inhibition of peptide 678 (IC50)
[7] = substrate coated at 6.2 μg/ml, mean ± S.D., n = 3

Experimental for BAE cells: Direct adhesion of BAE cells to the adsorbed peptides or uncoated substrate (control) are presented as mean±SD, n=3. […] Two flasks of BAE cells were grown to confluence. One flask was harvested and replated in fresh medium at 25% confluency. Fresh medium was added at the same time to the second flask. After 16 h, cells from both flasks were dissociated using EDTA and adhesion was measured on substrates coated with 40 μg/ml TSP1, 10 μg/ml vitronectin, 20 μg/ml plasma fibronectin, or 5 μg/ml type I collagen. The percent spread cells after 60 min is presented as mean±SD, n=3 for a representative experiment.
Results are presented as mean±SD, n=3. […] The percent spread cells was determined at 60 min.

- IC50 [1, 5]: 5 µM
- IC50 [1, 6]: 5 µM
Molecule: AQGVLQNVRFVF [Peptide 697]

- IC50 [2]: ~100 µM
Molecule: Ac-QGVLQNVRF-OH [Peptide 704]

- IC50 [1, 5]: 1.8 µM
- IC50 [1, 6]: 1.8 µM
- IC50 [2]: 12 µM
Molecule: FAGVLQNVRFVF [Peptide 696]
- Angiogenic response (% inhibition) ([4]; 5 μM peptide): 5 ± 2%
- Angiogenic response (% inhibition) ([4]; 10 μM peptide): 9 ± 3%
- Angiogenic response (% inhibition) ([4]; 20 μM peptide): 12 ± 4%

- IC50 [1, 5]: 5 µM
- IC50 [1, 6]: 5 µM
Molecule: FQGVAQNVRFVF [Peptide 695]

- IC50 [1, 5]: 3 µM
- IC50 [1, 6]: 3 µM
Molecule: FQGVLANVRFVF [Peptide 687]

- IC50 [1, 6]: 3 µM
Molecule: FQGVLNNVRFVF [Peptide 698]

- IC50 [1, 5]: > 300 µM
- IC50 [1, 6]: > 300 µM
Molecule: FQGVLQNARFVF [Peptide 691]

- IC50 [1, 5]: 54 µM
- IC50 [1, 6]: 54 µM
Molecule: FQGVLQNVHFVF [Peptide 694]

- IC50 [1, 5]: 6 µM
- IC50 [1, 6]: 6 µM
- IC50 [2]: 25 µM
Molecule: FQGVLQNVKFVF [Peptide 702]

- IC50 [1, 5]: > 100 µM
- IC50 [1, 6]: > 100 µM
- IC50 [2]: 300 µM
Molecule: FQGVLQNVQFVF [Peptide 703]

- IC50 [1, 5]: 18 µM
- IC50 [1, 6]: 18 µM
Molecule: FQGVLQNVRAVF [Peptide 692]

- IC50 [1, 5]: 27 µM
- IC50 [1, 6]: 27 µM
Molecule: FQGVLQNVRFVA [Peptide 693]

- IC50 [1, 6]: 300 µM
Molecule: LQNVRFVF [Peptide 684]

- IC50 [1, 6]: 24 µM
Molecule: QGVLQNVRFVF [Peptide 685]

- IC50 [1, 6]: > 300 µM
Molecule: TPGQVRTLWHDP [Peptide 701]

- IC50 [1, 6]: > 100 µM
Molecule: VLQNVRFVF [Peptide 688]

Further lines, the molecule ahead of its results:

Molecule: CC(C)C[C@H](NC(=O)[C@H](CCCNC(=N)N)NC(=O)[C@H](CC(C)C)NC(=O)[C@H](CC(N)=O)NC(=O)[C@H](CCCNC(=N)N)NC(=O)[C@@H](NC(=O)[C@H](CS)NC(=O)CNC(=O)[C@H](CCCNC(=N)N)NC(=O)[C@H](Cc1ccccc1)NC(=O)[C@H](CO)NC(=O)[C@H](C)NC(=O)[C@H](CCCNC(=N)N)NC(=O)[C@H](CO)NC(=O)[C@H](CO)NC(=O)[C@H](CC(C)C)NC(=O)[C@H](CS)NC(=O)[C@H](CC(N)=O)NC(=O)[C@H](CCC(N)=O)NC(=O)[C@@H](N)CCCCN)C(C)C)C(=O)N[C@@H](CO)C(=O)N[C@@H](CCCNC(=N)N)C(=O)O [Peptide 675, reference compound] (H-KQNCLSSRASFRGCVRNLRLSR-OH; N-terminus and C-terminus assumed)
- IC50 ([1]; read-out: IC50, inhibition of adhesion to either peptide or TSP1, tested in solution, data not shown): 700 µM

Molecule: CN(Cc1nc2ccccc2[nH]1)C(=O)c1ccc2c(c1)CN(C)C(=O)[C@H](CC(=O)O)N2 [SB223245, reference compound]
- inhibition of HUVEC spreading on TSP1 (HUVEC): did not significantly inhibit
- inhibition of HUVEC spreading on vitronectin (HUVEC): completely inhibited
- inhibition of BAE cell spreading on TSP1 (BAE cells; single agent): partially inhibited

Molecule: Ac-LQNVRF-NH2 [Peptide 681, ac-LQNVRF-am]
- IC50 [1, 6]: 500 µM

Molecule: ELTGAARKGSGRRLVKGPD [Hepl, focal adhesion disrupting peptide from the amino terminal domain of TSP1]
- promotion of MDA-MB-435 cell adhesion [3]: did not promote

Molecule: FQGVLQNVRF [Peptide 682]
- IC50 [1, 6]: 6 µM

Molecule: GRGDSP [reference compound]
- spreading response on TSP1 resistant to the peptide (BAE cells; 300 μM GRGDSP (FIG. 14A)): Approximately 20%
- inhibition of BAE cell spreading on TSP1, GRGDSP combined with the α3β1 binding peptide (BAE cells; combination with peptide 678): completely inhibited

Molecule: KRFKQDGGWSHWSPWSS [Peptide 246]
- promotion of MDA-MB-435 cell adhesion [3]: promoted adhesion

Molecule: KRFYVVMWKK [Peptide 4N1K]
- promotion of MDA-MB-435 cell adhesion [3]: promoted adhesion

Molecule: NGVQYRNC [Peptide 500]
- promotion of MDA-MB-435 cell adhesion [3]: weaker adhesive activities

Molecule: QGVLQNVR [Peptide 683]
- IC50 [1, 6]: > 300 µM

Molecule: SPWSSCSVTCGDGVITRIR [Mal-II]
- promotion of MDA-MB-435 cell adhesion [3]: weaker adhesive activities

Molecule: fibronectin
- SCLC cell adhesion (N417 SCLC cells; 6.2 μg/ml): 19 ± 2 cells/mm2
- SCLC cell adhesion (N417 SCLC cells; 12.5 μg/ml): 48 ± 4 cells/mm2
- SCLC cell adhesion (N417 SCLC cells; 25 μg/ml): 86 ± 6 cells/mm2
- SCLC cell adhesion (N417 SCLC cells; 50 μg/ml): 78 ± 2 cells/mm2
- SCLC cell adhesion (H345 SCLC cells; 6.2 μg/ml): 0 cells/mm2
- SCLC cell adhesion (H345 SCLC cells; 12.5 μg/ml): 6 ± 2 cells/mm2
- SCLC cell adhesion (H345 SCLC cells; 25 μg/ml): 25 ± 5 cells/mm2
- SCLC cell adhesion (H345 SCLC cells; 50 μg/ml): 17 ± 5 cells/mm2
- SCLC cell adhesion (H69 SCLC cells; 12.5 μg/ml): 5 ± 1 cells/mm2
- SCLC cell adhesion (H69 SCLC cells; 25 μg/ml): 13 ± 3 cells/mm2
- SCLC cell adhesion (H69 SCLC cells; 50 μg/ml): 22 ± 7 cells/mm2
- SCLC cell adhesion (H69 SCLC cells; [7]): 1 ± 1 cells/mm2

Molecule: laminin: murine laminin-1 purified from the EHS tumor
- SCLC cell adhesion (N417 SCLC cells; 6.2 μg/ml): 5 ± 1 cells/mm2
- SCLC cell adhesion (N417 SCLC cells; 12.5 μg/ml): 78 ± 3 cells/mm2
- SCLC cell adhesion (N417 SCLC cells; 25 μg/ml): 151 ± 6 cells/mm2
- SCLC cell adhesion (N417 SCLC cells; 50 μg/ml): 160 ± 3 cells/mm2
- SCLC cell adhesion (H345 SCLC cells; 6.2 μg/ml): 6 ± 2 cells/mm2
- SCLC cell adhesion (H345 SCLC cells; 12.5 μg/ml): 8 ± 1 cells/mm2
- SCLC cell adhesion (H345 SCLC cells; 25 μg/ml): 151 ± 31 cells/mm2
- SCLC cell adhesion (H345 SCLC cells; 50 μg/ml): 148 ± 9 cells/mm2
- SCLC cell adhesion (H69 SCLC cells; 12.5 μg/ml): 16 ± 1 cells/mm2
- SCLC cell adhesion (H69 SCLC cells; 25 μg/ml): 82 ± 8 cells/mm2
- SCLC cell adhesion (H69 SCLC cells; 50 μg/ml): 108 ± 11 cells/mm2
- SCLC cell adhesion (H69 SCLC cells; [7]): 1 ± 1 cells/mm2

Molecule: peptide 716 conjugated to FICOLL: peptide 716 covalently linked to FICOLL (polysucrose) (FQGVLQNVRFVF; not fully specified (N-terminus); also: number of peptides per FICOLL polymer not given here)
- inhibition of adhesion of MDA-MB-435 cells to peptide 678, compared to free peptide 716 ([2]; hexosaminidase detection): enhanced

B1: vitronectin: human vitronectin from Sigma (protein, UniProt P04004 20-478, looked up)
Vitronectin: DQESCKGRCTEGFNVDKKCQCDELCSYYQSCCTDYTAECKPQVTRGDVFTMPEDEYTVYDDGEEKNNATVHEQVGGPSLTSDLQAQSKGNPEQTPVLKPEEEAPAPEVGASKPEGIDSRPETLHPGRPQPPAEEELCSGKPFDAFTDLKNGSLFAFRGQYCYELDEKAVRPGYPKLIRDVWGIEGPIDAAFTRINCQGKTYLFKGSQYWRFEDGVLDPDYPRNISDGFDGIPDNVDAALALPAHSYSGRERVYFFKGKQYWEYQFQHQPSQEECEGSSLSAVFEHFAMMQRDSWEDIFELLFWGRTSAGTRQPQFISRDWHGVPGQVDAAMAGRIYISGMAPRPSLAKKQRFRHRNRKGYRSQRGHSRGRNQNSRRPSRATWLSLFSSEESNLGANNYDDYRMDWLVPATCEPIQSVFFFSGDKYYRVNLRTRRVDTVDPPYPRSIAQYWLGCPAPGHL
- percent spread BAE cells on substrate (BAE cells; cells harvested from a confluent monolayer): approximately 60%
